Test system: patients with advanced solid tumors
Assay: Safety and tolerability (adverse events, NCI CTCAE v4.03), phase I dose-escalation study
Type: in vivo, human
Description: This was a phase I, open-label, dose-escalation study of single-agent TAK-931. Dose escalation of TAK-931 was cohort based with an adaptive design using Bayesian logistic regression modeling (BLRM) with pharmacokinetic guidance. BLRM also guided MTD estimation from the second dose. Patients were enrolled in one of four dosing schedules (A, B, D, or E; Supplementary Fig. S1) to receive TAK-931. Two additional schedules were planned (C and F) but no patients were enrolled. Schedule A included an initial accelerated escalation phase. TAK-931 was administered once daily for 14 days in 21-day cycles starting at 30 mg, which doubled until a cycle 1 dose-limiting toxicity (DLT) was observed, when 2 patients experienced grade ≥2 treatment-related toxicity, or when maximum geometric mean plasma concentration (Cmax) for the cohort reached or exceeded 800 ng/mL [threshold for off-target adverse effects (hypotension) in animal toxicology studies]; then dose escalation transitioned to modified Fibonacci escalation steps. In schedule B (based on experience with schedule A), patients received TAK-931 once daily or twice daily for 7 days on, 7 days off in a 28-day cycle starting at 60 mg. In schedule D, patients received TAK-931 once daily starting at 20 mg in 21-day cycles; BLRM was not applied but further adjustments were dependent on observed safety, pharmacokinetics, and pharmacodynamics. In schedule E, patients received TAK-931 once daily for 2 days on, 5 days off starting at 100 mg in 21-day cycles. A safety expansion was permitted once MTD had been determined. Prophylactic growth factors were permitted in all schedules to manage severe and/or febrile neutropenia. TAK-931 treatment continued until unacceptable toxicity, disease progression, or patient withdrawal.
DLTs included: cycle 1 grade ≥3 hematologic and non-hematologic events or grade 2 non-hematologic events considered by the investigator to be TAK-931-related, grade 2 ejection fraction decrease, >2 weeks delay in initiating cycle 2 (1 week for schedules D and E), and >50% TAK-931 dose reduction in cycle 1 due to treatment-related adverse events (AEs; see Supplementary Materials and Methods for full DLT criteria). Toxicity was evaluated by NCI Common Terminology Criteria for Adverse Events (version 4.03). Tumor response was measured using the RECIST (version 1.1) ([16]). Serial blood samples for pharmacokinetic analysis were collected during cycle 1 on days 1 and 7 (schedule B), 1 and 8 (schedules A and D), or 1 and 9 (schedule E). Pharmacokinetic parameters were estimated from concentration–time profiles using noncompartmental methods with WinNonlin® Phoenix™ version 8.1 (Certara, Princeton, NJ). pMCM2 was detected semiquantitatively by IHC of histologic sections of formalin-fixed, paraffin-embedded skin and tumor biopsies using anti-pMCM2 (3378-1, Epitomics Inc.; ref. [15]). Quantitative image analysis determined pMCM2 levels as “histologic score nuclei (H-score).” Skin punch biopsies (2–4 mm) were obtained during screening or predose on cycle 1, day 1 and for patients in schedules A, B, and D, postdose on any drug dosing day after 3 consecutive dosing days in cycle 1. A postdose skin biopsy was obtained on day 9 in schedule E. Fresh tumor biopsy pairs were collected predose and postdose on any dosing day after the completion of 3 consecutive dosing days in cycle 1 from patients who received doses considered to have biological effect.
The safety population included patients who received ≥1 dose of TAK-931. The pharmacodynamic-evaluable population comprised patients from the safety population with a baseline and ≥1 additional postbaseline biopsy sample that was suitable for pMCM2 analysis. The pharmacokinetic-evaluable population included patients with sufficient dosing and TAK-931 concentration–time data to estimate pharmacokinetic parameters. […]

[1] = Schedule D (continuous once daily) n = 18
[2] = Schedule E (2 days on, 5 days off) n = 13
[3] = all schedules, N = 80, all grade 1/2

Cc1[nH]ncc1-c1cc2nc([C@@H]3CC4CCN3CC4)[nH]c(=O)c2s1 [TAK-931, simurosertib]
Rash popular, AE any grade [1]: 2 (11) n (%) | Stomatitis, AE any grade [1]: 0 (0) n (%) | Thrombocytopenia, AE any grade [1]: 0 (0) n (%) | Tumor pain, AE any grade [1]: 1 (6) n (%) | Vomiting, AE any grade [1]: 2 (11) n (%) | White blood cell count decreased, AE any grade [1]: 7 (39) n (%) | White blood cell count decreased, grade ≥3 AE [1]: 2 (11) n % | Abdominal pain, AE any grade [2]: 0 (0) n (%) | Alopecia, AE any grade [2]: 4 (31) n (%) | Anemia, AE any grade [2]: 6 (46) n (%) | Anemia, grade ≥3 AE [2]: 5 (38) n % | Arthralgia, AE any grade [2]: 1 (8) n (%) | Blood creatinine increased, AE any grade [2]: 0 (0) n (%) | Constipation, AE any grade [2]: 1 (8) n (%) | Cough, AE any grade [2]: 0 (0) n (%) | Decreased appetite, AE any grade [2]: 5 (38) n (%) | Decreased appetite, grade ≥3 AE [2]: 0 (0) n % | Diarrhea, AE any grade [2]: 3 (23) n (%) | Dry skin, AE any grade [2]: 3 (23) n (%) | Edema peripheral, AE any grade [2]: 3 (23) n (%) | Electrocardiogram QT prolonged, AE any grade [2]: 1 (8) n (%) | Fall, AE any grade [2]: 2 (15) n (%) | Fatigue, AE any grade [2]: 2 (15) n (%) | Febrile neutropenia, AE any grade [2]: 1 (8) n (%) | Febrile neutropenia, grade ≥3 AE [2]: 1 (8) n % | Gamma-glutamyltransferase increased, AE any grade [2]: 2 (15) n (%) | Gamma-glutamyltransferase increased, grade ≥3 AE [2]: 0 (0) n % | Hypoalbuminemia, AE any grade [2]: 0 (0) n (%) | Hypoalbuminemia, grade ≥3 AE [2]: 0 (0) n % | Hypophosphatemia, grade ≥3 AE [2]: 0 (0) n % | Hypotension, AE any grade [2]: 5 (38) n (%) | Leukopenia, AE any grade [2]: 1 (8) n (%) | Leukopenia, grade ≥3 AE [2]: 0 (0) n % | Lymphocyte count decreased, AE any grade [2]: 1 (8) n (%) | Lymphocyte count decreased, grade ≥3 AE [2]: 1 (8) n % | Lymphopenia, AE any grade [2]: 0 (0) n (%) | Malaise, AE any grade [2]: 2 (15) n (%) | Nasopharyngitis, AE any grade [2]: 0 (0) n (%) | Nausea, AE any grade [2]: 7 (54) n (%) | Neutropenia, AE any grade [2]: 8 (62) n (%) | Neutropenia, grade ≥3 AE [2]: 8 (62) n % | Orthostatic hypotension, AE any grade [2]: 3 (23) n (%) | Platelet count decreased, AE any grade [2]: 1 (8) n (%) | Pruritus, AE any grade [2]: 0 (0) n (%) | Pyrexia, AE any grade [2]: 2 (15) n (%) | Rash popular, AE any grade [2]: 0 (0) n (%) | Stomatitis, AE any grade [2]: 1 (8) n (%) | Thrombocytopenia, AE any grade [2]: 0 (0) n (%) | Tumor pain, AE any grade [2]: 3 (23) n (%) | Vomiting, AE any grade [2]: 7 (54) n (%) | White blood cell count decreased, AE any grade [2]: 7 (54) n (%) | White blood cell count decreased, grade ≥3 AE [2]: 4 (31) n % | Abdominal pain, AE any grade (Total, all schedules N = 80): 5 (6) n (%) | Alopecia, AE any grade (Total, all schedules N = 80): 26 (33) n (%) | Anemia, AE any grade (Total, all schedules N = 80): 19 (24) n (%) | Anemia, grade ≥3 AE (Total, all schedules N = 80): 10 (13) n % | Arthralgia, AE any grade (Total, all schedules N = 80): 6 (8) n (%) | Blood creatinine increased, AE any grade (Total, all schedules N = 80): 7 (9) n (%) | Constipation, AE any grade (Total, all schedules N = 80): 10 (13) n (%) | Cough, AE any grade (Total, all schedules N = 80): 3 (4) n (%) | Decreased appetite, AE any grade (Total, all schedules N = 80): 23 (29) n (%) | Decreased appetite, grade ≥3 AE (Total, all schedules N = 80): 3 (4) n % | Diarrhea, AE any grade (Total, all schedules N = 80): 15 (19) n (%) | Dry skin, AE any grade (Total, all schedules N = 80): 6 (8) n (%) | Edema peripheral, AE any grade (Total, all schedules N = 80): 10 (13) n (%) | Electrocardiogram QT prolonged, AE any grade (Total, all schedules N = 80): 4 (5) n (%) | Fall, AE any grade (Total, all schedules N = 80): 4 (5) n (%) | Fatigue, AE any grade (Total, all schedules N = 80): 12 (15) n (%) | Febrile neutropenia, AE any grade (Total, all schedules N = 80): 5 (6) n (%) | Febrile neutropenia, grade ≥3 AE (Total, all schedules N = 80): 5 (6) n % | Gamma-glutamyltransferase increased, AE any grade (Total, all schedules N = 80): 5 (6) n (%) | Gamma-glutamyltransferase increased, grade ≥3 AE (Total, all schedules N = 80): 2 (3) n % | Hypoalbuminemia, AE any grade (Total, all schedules N = 80): 6 (8) n (%) | Hypoalbuminemia, grade ≥3 AE (Total, all schedules N = 80): 2 (3) n % | Hypophosphatemia, grade ≥3 AE (Total, all schedules N = 80): 2 (3) n % | Hypotension, AE any grade (Total, all schedules N = 80): 11 (14) n (%) | Leukopenia, AE any grade (Total, all schedules N = 80): 19 (24) n (%) | Leukopenia, grade ≥3 AE (Total, all schedules N = 80): 11 (14) n % | Lymphocyte count decreased, AE any grade (Total, all schedules N = 80): 4 (5) n (%) | Lymphocyte count decreased, grade ≥3 AE (Total, all schedules N = 80): 2 (3) n % | Lymphopenia, AE any grade (Total, all schedules N = 80): 5 (6) n (%) | Malaise, AE any grade (Total, all schedules N = 80): 11 (14) n (%) | Nasopharyngitis, AE any grade (Total, all schedules N = 80): 6 (8) n (%) | Nausea, AE any grade (Total, all schedules N = 80): 48 (60) n (%) | Neutropenia, AE any grade (Total, all schedules N = 80): 45 (56) n (%) | Neutropenia, grade ≥3 AE (Total, all schedules N = 80): 37 (46) n % | Orthostatic hypotension, AE any grade (Total, all schedules N = 80): 4 (5) n (%) | Platelet count decreased, AE any grade (Total, all schedules N = 80): 6 (8) n (%) | Pruritus, AE any grade (Total, all schedules N = 80): 4 (5) n (%) | Pyrexia, AE any grade (Total, all schedules N = 80): 10 (13) n (%) | Rash popular, AE any grade (Total, all schedules N = 80): 5 (6) n (%) | Stomatitis, AE any grade (Total, all schedules N = 80): 7 (9) n (%) | Thrombocytopenia, AE any grade (Total, all schedules N = 80): 5 (6) n (%) | Tumor pain, AE any grade (Total, all schedules N = 80): 8 (10) n (%) | Vomiting, AE any grade (Total, all schedules N = 80): 29 (36) n (%) | White blood cell count decreased, AE any grade (Total, all schedules N = 80): 27 (34) n (%) | White blood cell count decreased, grade ≥3 AE (Total, all schedules N = 80): 12 (15) n % | Decrease in CLr (renal effects monitoring) (all schedules): no clinically relevant decrease | Severity of cardiovascular events (all schedules): grade 1/2 | Alopecia, AE (all schedules, N = 80): 33% | Anemia, AE (all schedules, N = 80): 24% | Anemia, grade ≥3 AE (all schedules, N = 80): 13% | Decreased appetite, AE (all schedules, N = 80): 29% | Febrile neutropenia, grade ≥3 AE (all schedules, N = 80): 6% | Leukopenia, AE (all schedules, N = 80): 24% | Leukopenia, grade ≥3 AE (all schedules, N = 80): 14% | Nausea, AE (all schedules, N = 80): 60% | Neutropenia, AE (all schedules, N = 80): 56% | Neutropenia, grade ≥3 AE (all schedules, N = 80): 46% | Patients who discontinued treatment (AEs) (all schedules, N = 80): 4 patients | Patients with AEs resulting in dose delays (all schedules, N = 80): 40% | Patients with AEs resulting in dose holds (all schedules, N = 80): 45% | Patients with AEs resulting in dose reductions (all schedules, N = 80): 31% | Vomiting, AE (all schedules, N = 80): 36% | White blood cell count decreased, AE (all schedules, N = 80): 34% | White blood cell count decreased, grade ≥3 AE (all schedules, N = 80): 15% | Patients reporting grade ≥3 AEs (all schedules, N = 80, 50 patients): 63% | Patients experiencing AEs (all schedules, N = 80, 79 patients): 99% | Patients with AEs resulting in TAK-931 dose modification (all schedules, N = 80, Forty-nine patients): 61% | Patients who discontinued treatment (AEs) (all schedules, N = 80, Four patients): 5% | Patients with ≥1 serious AE (all schedules, N = 80, Twenty-three patients): 29% | Electrocardiogram QT prolonged, cardiovascular event [3]: 5% | Hypotension, cardiovascular event [3]: 14% | Orthostatic hypotension, cardiovascular event [3]: 5% | Decreased appetite, serious AE (all schedules, N = 80, n = 3): 4% | Malignant ascites, serious AE (all schedules, N = 80, n = 3): 4% | Febrile neutropenia, serious AE (all schedules, N = 80, n = 4): 5% | Patients who died during the study (all schedules, Two patients, due to disease progression, neither related to TAK-931): 3%
